What is called IC50 is the midpoint of a concentration-inhibition curve.

From patent publication US20180334436A1 (VIIV HEALTHCARE UK LIMITED, priority 2015, published 2018) come the findings set out here.

The assay has as its system HIV. The experiment in a line: MT4 assay (anti-HIV activity). Format: cell-based. The note with it: Human immunodeficiency virus 1, 96 h, antiviral HIV activity in HTLV-1 transformed cell line MT-4; luciferase read 96 hours later; 10 point dose response. An outline of the steps: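 MT-4 cells infected with HIV, with inhibition readout by CellTiter-Glo luminescence at 96 h relative to no-compound control. Cytotoxicity measured in parallel under the same conditions. IC50 from a 10-point, 3-4-fold dilution series spanning >1000-fold, fitted with a four-parameter logistic equation.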
As for `Cc1ccc(-c2c(C)c3c(c(C)c2[C@H](OC(C)(C)C)C(=O)O)CCN(C2CC4CCC2C4)C3)cc1` (stereo partly drawn) [Example 49, (2S)-2-(2-(bicyclo[2.2.1]heptan-2-yl)-5,8-dimethyl-7-(p-tolyl)-1,2,3,4-tetrahydroisoquinolin-6-yl)-2-(tert-butoxy)acetic Acid], the IC50 came out at 0.011 µM.

`Cc1ccc(-c2c(C)c3c(c(C)c2[C@H](OC(C)(C)C)C(=O)O)CCN(C2CCCCCC2)C3)cc1` [Example 50, (S)-2-(tert-butoxy)-2-(2-cycloheptyl-5,8-dimethyl-7-(p-tolyl)-1,2,3,4-tetrahydroisoquinolin-6-yl)acetic Acid]: the concentration for half-maximal inhibition (IC50) amounted to 0.005 µM.

As for `Cc1ccc(-c2c(C)c3c(c(C)c2[C@H](OC(C)(C)C)C(=O)O)CCN(C2CCC4(CC2)CC4)C3)cc1` [Example 51, (S)-2-(tert-butoxy)-2-(5,8-dimethyl-2-(spiro[2.5]octan-6-yl)-7-(p-tolyl)-1,2,3,4-tetrahydroisoquinolin-6-yl)acetic Acid], the IC50 worked out at 0.011 µM.

For the molecule `Cc1ccc(-c2c(C)c3c(c(C)c2[C@H](OC(C)(C)C)C(=O)O)CCN(C2CCCC(C)(C)C2)C3)cc1` (stereo partly drawn) [Example 52, (2S)-2-(tert-butoxy)-2-(2-(3,3-dimethylcyclohexyl)-5,8-dimethyl-7-(p-tolyl)-1,2,3,4-tetrahydroisoquinolin-6-yl)acetic Acid], the IC50 was 0.01 µM.

Consider `Cc1ccc(-c2c(C)c3c(c(C)c2[C@H](OC(C)(C)C)C(=O)O)CCN(C(=O)CN2CCCCC2)C3)cc1` [Example 53, (S)-2-(tert-butoxy)-2-(5,8-dimethyl-2-(2-(piperidin-1-yl)acetyl)-7-(p-tolyl)-1,2,3,4-tetrahydroisoquinolin-6-yl)acetic Acid], for which the IC50 worked out at 0.807 µM.

Take `Cc1ccc(-c2c(C)c3c(c(C)c2[C@H](OC(C)(C)C)C(=O)O)CCN(CC(=O)N2CCCCC2)C3)cc1` [Example 54, (S)-2-(tert-butoxy)-2-(5,8-dimethyl-2-(2-oxo-2-(piperidin-1-yl)ethyl)-7-(p-tolyl)-1,2,3,4-tetrahydroisoquinolin-6-yl)acetic Acid]: the IC50 stood at 0.309 µM.

In the case of `Cc1ccc(-c2c(C)c3c(c(C)c2[C@H](OC(C)(C)C)C(=O)O)CCN(Cc2ccccc2)C3)cc1` [Example 55, (S)-2-(2-benzyl-5,8-dimethyl-7-(p-tolyl)-1,2,3,4-tetrahydroisoquinolin-6-yl)-2-(tert-butoxy)acetic Acid], the IC50 was found to be 0.349 µM.

Take `Cc1ccc(-c2c(C)c3c(c(C)c2[C@H](OC(C)(C)C)C(=O)O)CCN(C2CCC(F)(F)CC2)C3)cc1` [Example 56, (S)-2-(tert-butoxy)-2-(2-(4,4-difluorocyclohexyl)-5,8-dimethyl-7-(p-tolyl)-1,2,3,4-tetrahydroisoquinolin-6-yl)acetic Acid]: the IC50 worked out at 0.014 µM.

On to `Cc1ccc(-c2c(C)c3c(c(C)c2[C@H](OC(C)(C)C)C(=O)O)CCN(S(=O)(=O)c2cccc(F)c2)C3)cc1` [Example 57, (S)-2-(tert-butoxy)-2-(2-((3-fluorophenyl)sulfonyl)-5,8-dimethyl-7-(p-tolyl)-1,2,3,4-tetrahydroisoquinolin-6-yl)acetic Acid], for which the IC50 worked out at 0.292 µM.

Take `Cc1ccc(-c2c(C)c3c(c(C)c2[C@H](OC(C)(C)C)C(=O)O)CCN(S(=O)(=O)CC2CCCCC2)C3)cc1` [Example 58, (S)-2-(tert-butoxy)-2-(2-((cyclohexylmethyl)sulfonyl)-5,8-dimethyl-7-(p-tolyl)-1,2,3,4-tetrahydroisoquinolin-6-yl)acetic Acid]: the IC50 was found to be 0.284 µM.

With `Cc1ccc(-c2c(C)c3c(c(C)c2[C@H](OC(C)(C)C)C(=O)O)CCN(C2CCC4CCC2C4)C3)cc1` (stereo partly drawn) [Example 60, (2S)-2-(2-(bicyclo[3.2.1]octan-2-yl)-5,8-dimethyl-7-(p-tolyl)-1,2,3,4-tetrahydroisoquinolin-6-yl)-2-(tert-butoxy)acetic Acid], the IC50 was 0.005 µM.

As for `Cc1ccc(-c2c(C)c3c(c(C)c2[C@H](OC(C)(C)C)C(=O)O)CCN(C2CCC2)C3)cc1` [Example 61, (S)-2-(tert-butoxy)-2-(2-cyclobutyl-5,8-dimethyl-7-(p-tolyl)-1,2,3,4-tetrahydroisoquinolin-6-yl)acetic Acid], the IC50 was found to be 0.141 µM.

Take `Cc1ccc(-c2c(C)c3c(c(C)c2[C@H](OC(C)(C)C)C(=O)O)CCN(S(=O)(=O)CC(C)(C)C)C3)cc1` [Example 62, (S)-2-(tert-butoxy)-2-(5,8-dimethyl-2-(neopentylsulfonyl)-7-(p-tolyl)-1,2,3,4-tetrahydroisoquinolin-6-yl)acetic Acid]: the IC50 turned out to be 0.011 µM.

Consider `Cc1ccc(-c2c(C)c3c(c(C)c2[C@H](OC(C)(C)C)C(=O)O)CCN(S(=O)(=O)NC2CCCCC2)C3)cc1` [Example 63, (S)-2-(tert-butoxy)-2-(2-(N-cyclohexylsulfamoyl)-5,8-dimethyl-7-(p-tolyl)-1,2,3,4-tetrahydroisoquinolin-6-yl)acetic Acid], for which the IC50 is 0.119 µM.

On to `COc1c(F)cccc1S(=O)(=O)N1CCc2c(C)c([C@H](OC(C)(C)C)C(=O)O)c(-c3ccc(C)cc3)c(C)c2C1` [Example 64, (S)-2-(tert-butoxy)-2-(2-((3-fluoro-2-methoxyphenyl)sulfonyl)-5,8-dimethyl-7-(p-tolyl)-1,2,3,4-tetrahydroisoquinolin-6-yl)acetic Acid], for which the IC50 is 0.089 µM.

Regarding `Cc1ccc(-c2c(C)c3c(c(C)c2[C@H](OC(C)(C)C)C(=O)O)CCN(S(=O)(=O)C2CCCC2)C3)cc1` [Example 65, (S)-2-(tert-butoxy)-2-(2-(cyclopentylsulfonyl)-5,8-dimethyl-7-(p-tolyl)-1,2,3,4-tetrahydroisoquinolin-6-yl)acetic Acid], the IC50 worked out at 0.012 µM.

For the molecule `Cc1ccc(-c2c(C)c3c(c(C)c2[C@H](OC(C)(C)C)C(=O)O)CCN(S(=O)(=O)C(C)C)C3)cc1` [Example 66, (S)-2-(tert-butoxy)-2-(2-(isopropylsulfonyl)-5,8-dimethyl-7-(p-tolyl)-1,2,3,4-tetrahydroisoquinolin-6-yl)acetic Acid], the IC50 amounted to 0.048 µM.

`Cc1ccc(-c2c(C)c3c(c(C)c2[C@H](OC(C)(C)C)C(=O)O)CCN(S(=O)(=O)C2CCCCCC2)C3)cc1` [Example 68, (S)-2-(tert-butoxy)-2-(2-(cycloheptylsulfonyl)-5,8-dimethyl-7-(p-tolyl)-1,2,3,4-tetrahydroisoquinolin-6-yl)acetic Acid]: the IC50 is 0.05 µM.

With `Cc1ccc(-c2c(C)c3c(c(C)c2[C@H](OC(C)(C)C)C(=O)O)CCN(C2CCCCCCC2)C3)cc1` [Example 69, (S)-2-(tert-butoxy)-2-(2-cyclooctyl-5,8-dimethyl-7-(p-tolyl)-1,2,3,4-tetrahydroisoquinolin-6-yl)acetic Acid], the IC50 was 0.006 µM.

Take `Cc1ccc(-c2c(C)c3c(c(C)c2[C@H](OC(C)(C)C)C(=O)O)CCN(C(C)C2CCCCC2)C3)cc1` (stereo partly drawn) [Example 70, (2S)-2-(tert-butoxy)-2-(2-(1-cyclohexylethyl)-5,8-dimethyl-7-(p-tolyl)-1,2,3,4-tetrahydroisoquinolin-6-yl)acetic Acid]: the IC50 was determined as 0.13 µM.

Regarding `Cc1ccc(-c2c(C)c3c(c(C)c2[C@H](OC(C)(C)C)C(=O)O)CCN(C2CCC[C@@H](C)C2)C3)cc1` (stereo partly drawn) [Example 72, (2S)-2-(tert-butoxy)-2-(5,8-dimethyl-2-((3R)-3-methylcyclohexyl)-7-(p-tolyl)-1,2,3,4-tetrahydroisoquinolin-6-yl)acetic Acid], the IC50 worked out at 0.023 µM.

Take `Cc1ccc(-c2c(C)c3c(c(C)c2[C@H](OC(C)(C)C)C(=O)O)CCN(C2CC[C@@H](C)C2)C3)cc1` (stereo partly drawn) [Example 73, (2S)-2-(tert-butoxy)-2-(5,8-dimethyl-2-((3R)-3-methylcyclopentyl)-7-(p-tolyl)-1,2,3,4-tetrahydroisoquinolin-6-yl)acetic Acid]: the IC50 is 0.042 µM.

Regarding `Cc1ccc(-c2c(C)c3c(c(C)c2[C@H](OC(C)(C)C)C(=O)O)CCN(C2CC4CCC(C4)C2)C3)cc1` (stereo partly drawn) [Example 74, (2S)-2-(2-(bicyclo[3.2.1]octan-3-yl)-5,8-dimethyl-7-(p-tolyl)-1,2,3,4-tetrahydroisoquinolin-6-yl)-2-(tert-butoxy)acetic Acid], the IC50 was determined as 0.012 µM.

Consider `Cc1ccc(-c2c(C)c3c(c(C)c2[C@H](OC(C)(C)C)C(=O)O)CCN(C(=O)C2CCCCCC2)C3)cc1` [Example 75, (S)-2-(tert-butoxy)-2-(2-(cycloheptanecarbonyl)-5,8-dimethyl-7-(p-tolyl)-1,2,3,4-tetrahydroisoquinolin-6-yl)acetic Acid], for which the IC50 was 0.051 µM.

For `Cc1ccc(-c2c(C)c3c(c(C)c2[C@H](OC(C)(C)C)C(=O)O)CCN(C(=O)C2(C)CCCCC2)C3)cc1` [Example 76, (S)-2-(tert-butoxy)-2-(5,8-dimethyl-2-(1-methylcyclohexanecarbonyl)-7-(p-tolyl)-1,2,3,4-tetrahydroisoquinolin-6-yl)acetic Acid], the IC50 was 0.041 µM.

Take `Cc1ccc(-c2c(C)c3c(c(C)c2[C@H](OC(C)(C)C)C(=O)O)CCN(C2CCc4ccccc4C2)C3)cc1` (stereo partly drawn) [Example 77, (2S)-2-(tert-butoxy)-2-(5,8-dimethyl-2-(1,2,3,4-tetrahydronaphthalen-2-yl)-7-(p-tolyl)-1,2,3,4-tetrahydroisoquinolin-6-yl)acetic Acid]: the IC50 worked out at 0.04 µM.

For the molecule `Cc1ccc(-c2c(C)c3c(c(C)c2[C@H](OC(C)(C)C)C(=O)O)CCN(C(=O)C2CCc4ccccc4C2)C3)cc1` (stereo partly drawn) [Example 78, (2S)-2-(tert-butoxy)-2-(5,8-dimethyl-2-(1,2,3,4-tetrahydronaphthalene-2-carbonyl)-7-(p-tolyl)-1,2,3,4-tetrahydroisoquinolin-6-yl)acetic Acid], the concentration for half-maximal inhibition (IC50) was found to be 0.109 µM.

Take `Cc1c(-c2c(C)c3c(c(C)c2[C@H](OC(C)(C)C)C(=O)O)CCN(C(=O)C2CCCCC2)C3)cc(F)c2c1CCCO2` [Example 79, (S)-2-(tert-Butoxy)-2-((R)-2-(cyclohexanecarbonyl)-7-(8-fluoro-5-methylchroman-6-yl)-5,8-dimethyl-1,2,3,4-tetrahydroisoquinolin-6-yl)acetic Acid]: the IC50 is 0.035 µM.
